The results in this text go back to patent US20090275099A1 (priority 2004, published 2009).

For one data set, the system named is Ramos B cells. Put plainly: cell death of Ramos B cells, propidium iodide exclusion by flow cytometry, 24 h. The class given is cell-based, human. As to conditions: Homo sapiens, Ramos, 24 h; read-out: Cell death EC50 (μM), Ramos cells. A general note: In flow cytometry, cells or beads pass a laser one at a time.
The target of data set [1] is peripheral benzodiazepine receptor (“PBR”) (Homo sapiens, UniProt P30536). Briefly: binding to the peripheral benzodiazepine receptor.
The next data set has as its system Jurkat cells. Briefly: cell death at 24 h. The class given is cell-based. The following applies: Homo sapiens, Jurkat, 24 h, read-out: Cell death EC50 (μM), Jurkat cells. As to the method:
(§1) Since an early mitochondrial superoxide (O2^−) mediates apoptosis induced by Bz-423, the O2^− response of cells 1 h following incubation with drug was examined, as well as cell death at 24 h, as previously described (see, e.g., Blatt, N. B., et al., 2002 J Clin Invest 110, 1123-1132; incorporated herein by reference in its entirety).

Another data set relates to Ramos cells. Briefly: early O2− (ROS) response, 1 h. In kind it is cell-based, human. The following applies: Homo sapiens, Ramos, 1 h, read-out: ROS EC50 (μM), Ramos cells. The protocol:
To detect O2^−, cells are incubated with DHE (10 μM) for 30 min at 37° C. and are analyzed by flow cytometry to measure ethidium fluorescence. Flow analysis of mitochondrial transmembrane potential (ψm) is conducted by labeling cells with DiOC6(3) (20 nM) for 15 min at 37 degrees C. A positive control for disruption of ψm is established using carbonyl cyanide m-chlorophenylhydrazone (CCCP, 50 μM). Caspase activation assays are performed with FAM-VAD-fluoromethylketone. Processing of the substrate is evaluated by flow cytometry.
as §1

Data set [2] deals with T1, bovine serum albumin (BSA) (Bos taurus, UniProt P02769).
T1 construct: from tissue; host or cells: fetal bovine serum in tissue culture media
Put plainly: binding to bovine serum albumin in tissue culture media. The class given is in vitro ADME. The following applies: tissue culture media containing 10% (v/v) FBS. The protocol: Like most 1,4-benzodiazepines, Bz-423 binds strongly to bovine serum albumin (BSA), which reduces the effective concentration of drug free in solution. For example, in tissue culture media containing 10% (v/v) fetal bovine serum (FBS), ca. 99% of the drug is bound to BSA. Therefore, cell culture cytotoxicity assays are conducted in media with 2% FBS to reduce binding to BSA and increase the free [Bz-423]. Under these conditions, the dose response-curve is quite sharp such that there is a limited concentration range at which Bz-423 is only partly effective. Since some benzodiazepines are known to have anti-proliferative properties, the effect of Bz-423 at concentrations <ED50 were carefully analyzed and observed that in addition to inducing apoptosis, Bz-423 prevented cell growth after 3 d in culture. In these low serum conditions, the cytotoxic and anti-proliferative effects overlapped making it difficult to study each effect independently. […] While higher amounts of drug may also block proliferation, it caused apoptosis well before the effects on proliferation could be observed.

For the next data set, the target named is F1F0-ATPase (Bos taurus, UniProt P13621+P32876). Briefly: off-rate measurements, recovery of ATP synthesis of SMPs after dilution. In kind it is biochemical, bovine. As to the method:
Inhibition of Na,K-ATPases with oligomycin is time-dependent and results from a slow rate of dissociation from the enzyme (0.05 s^−1) (see, e.g., Esmann, M. (1991) Biochim. Biophys. Acta 1064, 31-36; herein incorporated by reference in its entirety). Since time-dependent inhibition can have profound effects on the function of the F1F0-ATPase, the off-rate of Bz-423 and oligomycin during ATP synthesis was examined. […] Inhibited SMP suspensions were diluted into buffer and activity was measured over time. Enzymatic activity of the SMPs incubated with Bz-423 had recovered to 90% of control at 10 s, indicating rapid dissociation (see, FIG. 18). In contrast, the activity of the enzyme incubated with oligomycin was only 54% of the uninhibited activity at 10 s, and increased for several minutes after dilution (see, FIG. 18). The time-dependence of the recovery of activity fit to a single exponential yielding an apparent dissociation rate constant for Bz-423>0.3 s^−1. However, dissociation of oligomycin was complex and a portion of the inhibitor dissociated at least 10-fold slower, consistent with a tight-binding, slow-dissociating inhibitor (see, e.g., Morrison, J. F., and Walsh, C. T. (1988) Adv. Enzymol. Relat. Areas Mol. Biol. 61, 201-301; herein incorporated by reference in its entirety). Presumably, the constraints of a high-affinity inhibitor dissociating from the membrane embedded proton channel presented a significant barrier for dissociation resulting in a slow off-rate.
Off-rate measurements. Rate of inhibition of ATP synthesis was measured as described above with the following changes. A 20 μL aliquot of SMPs (1 mg mL^−1) in synthesis buffer (with 10 mM K2HPO4) was added to each well of a 96-well plate containing 2.5 μL of 100× drug (14 μM Bz-423 and 35 nM oligomycin, final) or DMSO vehicle control. The drug was diluted out by adding 200 μL of synthesis buffer to each well. Substratecoupling mixture (25 μL with 1 mM ADP) was added to each well at the indicated time point and the rate of NADP^+ reduction was monitored over time.

Where two headings read alike, the source gives them in different places.

T1 sequence (P02769 25-607): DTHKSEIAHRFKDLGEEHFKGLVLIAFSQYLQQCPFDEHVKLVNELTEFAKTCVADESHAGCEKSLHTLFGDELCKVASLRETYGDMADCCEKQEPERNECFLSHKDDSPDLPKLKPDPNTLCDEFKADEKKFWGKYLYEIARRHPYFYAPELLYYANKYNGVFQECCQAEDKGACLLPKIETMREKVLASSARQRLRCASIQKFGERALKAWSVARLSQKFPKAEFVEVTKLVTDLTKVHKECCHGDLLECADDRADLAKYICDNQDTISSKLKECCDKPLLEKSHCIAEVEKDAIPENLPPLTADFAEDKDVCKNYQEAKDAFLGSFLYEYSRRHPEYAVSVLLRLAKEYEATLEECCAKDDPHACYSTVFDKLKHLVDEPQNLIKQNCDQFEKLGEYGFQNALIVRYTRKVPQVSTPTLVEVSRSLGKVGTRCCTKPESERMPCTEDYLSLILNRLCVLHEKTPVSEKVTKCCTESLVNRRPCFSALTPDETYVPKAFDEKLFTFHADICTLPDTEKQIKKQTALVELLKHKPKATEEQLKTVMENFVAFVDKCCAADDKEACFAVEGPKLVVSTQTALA
Chain of peripheral benzodiazepine receptor (“PBR”) (P30536 whole entry, species assumed): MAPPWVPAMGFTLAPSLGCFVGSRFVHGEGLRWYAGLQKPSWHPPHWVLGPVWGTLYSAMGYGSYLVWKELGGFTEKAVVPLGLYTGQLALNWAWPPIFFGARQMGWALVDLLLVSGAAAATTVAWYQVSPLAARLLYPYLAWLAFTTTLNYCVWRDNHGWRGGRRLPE

Turning to `CN1C(=O)C(Cc2ccc3ccccc3c2)N=C(c2ccc(O)cc2)c2cc(Cl)ccc21` (stereo not shown) [Bz-423], the EC50 (commonly the concentration giving half of the maximal effect) was 6.3 µM in the data set with Ramos B cells, 6 µM with Jurkat cells and 7.3 µM in the data set on Ramos cells. The Kd (in general, the free concentration of one partner at which half of the binding sites on the other are occupied at equilibrium, for simple one-to-one binding) in data set [1] is around 1 µM. Besides, the “drug bound to BSA” value in data set [2] is reported as “ca. 99%”. Besides, the “reduction of F1F0-ATPase activity at the concentration produced after dilution” value at F1F0-ATPase (1.4 μM Bz-423, 3.5 nM oligomycin) was found to be 10%. On F1F0-ATPase (14 μM Bz-423 or 35 nM oligomycin, read-out: ATP synthesis activity relative to that in the absence of inhibitor), the activity at 14 µM turned out to be 27%. Also, the “enzymatic activity recovered after dilution, % of control” value on F1F0-ATPase (at 10 s after dilution) worked out at 90%. Also, the koff at F1F0-ATPase (read-out: dissociation rate from the enzyme-substrate complex) is around 0.2 s⁻¹; at F1F0-ATPase (single exponential fit, read-out: apparent dissociation rate constant), above 0.3 s⁻¹.
